Results reported in ChEMBL document CHEMBL3576804, “Novel Potent Orthosteric Antagonist of ASIC1a Prevents NMDAR-Dependent LTP Induction” (J Med Chem, 2015).
Calls of active or inactive are those of the source. The rule behind the calls is not given here.

How the values were obtained:
Format in all cases: cell-based
[1] = biological target: T1, Acid-sensing ion channel 1 (Homo sapiens) (UniProt P78348); experiment: Inhibition of human ASIC1a endogenously expressed in HEK293 cells clamped at -20 mV gated ionic current at 10 uM by standard whole cell patch clamp assay
T1 sequence (whole entry): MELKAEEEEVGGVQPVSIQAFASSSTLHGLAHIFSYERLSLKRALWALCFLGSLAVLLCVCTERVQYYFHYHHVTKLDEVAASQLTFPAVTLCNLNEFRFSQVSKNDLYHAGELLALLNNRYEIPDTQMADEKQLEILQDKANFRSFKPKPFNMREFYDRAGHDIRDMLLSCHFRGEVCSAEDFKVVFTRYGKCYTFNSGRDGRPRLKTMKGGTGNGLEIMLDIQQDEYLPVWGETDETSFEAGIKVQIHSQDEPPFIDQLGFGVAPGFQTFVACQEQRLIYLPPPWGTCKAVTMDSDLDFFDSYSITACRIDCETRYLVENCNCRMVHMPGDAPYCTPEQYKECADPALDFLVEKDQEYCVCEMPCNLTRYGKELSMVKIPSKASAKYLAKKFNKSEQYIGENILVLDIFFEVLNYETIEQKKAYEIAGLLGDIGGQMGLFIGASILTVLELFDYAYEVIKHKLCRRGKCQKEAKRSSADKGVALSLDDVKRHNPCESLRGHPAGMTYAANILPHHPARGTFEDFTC

[2] = biological target: T1, Acid-sensing ion channel 1 (Homo sapiens); experiment: Inhibition of human ASIC1a endogenously expressed in HEK293 cells clamped at -100 mV gated ionic current at 10 uM in presence of cellular membrane depolarization by standard whole cell patch clamp assay
[3] = biological target: T1, Acid-sensing ion channel 1 (Homo sapiens); experiment: Inhibition of human ASIC1a endogenously expressed in HEK293 cells clamped at -100 mV gated ionic current at 10 uM by standard whole cell patch clamp assay
[4] = biological target: T1, Acid-sensing ion channel 1 (Homo sapiens); experiment: Reversible inhibition of human ASIC1a endogenously expressed in HEK293 cells clamped at -100 mV gated ionic current at 100 nM to 100 uM at pH 6.7 by standard whole cell patch clamp assay
[5] = biological target: T1, Acid-sensing ion channel 1 (Homo sapiens); experiment: Inhibition of human ASIC1a endogenously expressed in HEK293 cells clamped at -100 mV gated ionic current at 100 nM at pH 6.7 by standard whole cell patch clamp assay
[6] = biological target: T1, Acid-sensing ion channel 1 (Homo sapiens); experiment: Reversible inhibition of human ASIC1a endogenously expressed in HEK293 cells clamped at -100 mV gated ionic current at 100 nM to 100 uM at pH 5.0 by standard whole cell patch clamp assay
[7] = biological target: T1, Acid-sensing ion channel 1 (Homo sapiens); experiment: Inhibition of human ASIC1a endogenously expressed in HEK293 cells clamped at -100 mV gated ionic current at 10 uM at pH 6.7 by standard whole cell patch clamp assay
[8] = biological target: T1, Acid-sensing ion channel 1 (Homo sapiens); experiment: Inhibition of human ASIC1a endogenously expressed in HEK293 cells clamped at -100 mV gated ionic current at 100 uM at pH 5.0 by standard whole cell patch clamp assay
[9] = biological target: T1, Acid-sensing ion channel 1 (Homo sapiens); experiment: Inhibition of human ASIC1a endogenously expressed in HEK293 cells clamped at -100 mV gated ionic current at 100 nM at pH 5.0 by standard whole cell patch clamp assay
[10] = biological target: T1, Acid-sensing ion channel 1 (Homo sapiens); experiment: Inhibition of human ASIC1a endogenously expressed in HEK293 cells clamped at -100 mV gated ionic current at 10 uM at pH 5.0 by standard whole cell patch clamp assay
[11] = biological target: T1, Acid-sensing ion channel 1 (Homo sapiens); experiment: Inhibition of human ASIC1a endogenously expressed in HEK293 cells clamped at -100 mV gated ionic current at 100 uM at pH 6.7 by standard whole cell patch clamp assay

Row | Structure (SMILES) | inhibition [1] [%] | inhibition [2] | inhibition [3] [%] | inhibition [4] | inhibition [5] [%] | inhibition [6] | inhibition [7] [%] | inhibition [8] [%] | inhibition [9] [%] | inhibition [10] [%] | inhibition [11] [%]
1 | N=C(N)NC(=O)c1nc(Cl)c(N)nc1N | 60.7 | inactive | 41.3 | – | – | – | – | – | – | – | –
2 | CCN(CC)CCN(Cc1ccccc1)c1ccc2cc(C(=N)N)c(=O)oc2c1 | – | – | – | Active | 68.9 | Active | 22.1 | 28.8 | 96.1 | 65.7 | 3.7
3 | CCN(CC)c1ccc2cc(C(=N)N)c(=O)oc2c1 | – | – | – | – | – | – | – | 41 | – | – | 49
